The results in this text go back to patent publication US20130143915A1, “TRIAZOLOPYRIDINES AS TYK2 INHIBITORS” (CELLZOME LIMITED, priority 2010, published 2013).

In assay [1] the target is T1, TYK2 (Homo sapiens, UniProt P29597).
T1 construct: endogenous in cells; host or cells: mixed Molt4/Ramos cell lysate (1:2)
Nature of the assay: Kinobeads assay, TYK2 (competition binding in mixed Molt4/Ramos cell lysate, dot blot detection). As for the experimental part:
(§1) The compounds of the present invention as described in the previous examples were tested in a Kinobeads™ assay as described for ZAP-70 (WO-A 2007/137867). Briefly, test compounds (at various concentrations) and the affinity matrix with the immobilized aminopyrido-pyrimidine ligand 24 were added to cell lysate aliquots and allowed to bind to the proteins in the lysate sample. After the incubation time the beads with captured proteins were separated from the lysate. Bound proteins were then eluted and the presence of TYK2 and JAK2 was detected and quantified using specific antibodies in a dot blot procedure and the Odyssey infrared detection system. Dose response curves for individual kinases were generated and IC50 values calculated. Kinobeads™ assays have been previously described (WO-A 2007/137867; WO-A 2006/134056).
(§2) The affinity matrix was washed two times with 15 mL of 1×DP buffer containing 0.2% NP40 (IGEPAL® CA-630, Sigma, #13021) and then resuspended in 1×DP buffer containing 0.2% NP40 (3% beads slurry).
(§3) 5×DP buffer: 250 mM Tris-HCl pH 7.4, 25% Glycerol, 7.5 mM MgCl2, 750 mM NaCl, 5 mM Na3VO4; filter the 5×DP buffer through a 0.22 μm filter and store in aliquots at −80° C. The 5×DP buffer is diluted with H2O to 1×DP buffer containing 1 mM DTT and 25 mM NaF.
(§4) Stock solutions of test compounds were prepared in DMSO. In a 96 well plate 30 μL solution of diluted test compounds at 5 mM in DMSO were prepared. Starting with this solution a 1:3 dilution series (9 steps) was prepared. For control experiments (no test compound) a buffer containing 2% DMSO was used.
(§5) Molt4 cells (ATCC catalogue number CRL-1582) and Ramos cells (ATCC catalogue number CRL-1596) were grown in 1 L Spinner flasks (Integra Biosciences, #182101) in suspension in RPMI 1640 medium (Invitrogen, #21875-034) supplemented with 10% Fetal Bovine Serum (Invitrogen) at a density between 0.15×10^6 and 1.2×10^6 cells/mL. Cells were harvested by centrifugation, washed once with 1×PBS buffer (Invitrogen, #14190-094) and cell pellets were frozen in liquid nitrogen and subsequently stored at −80° C. Cells were homogenized in a Potter S homogenizer in lysis buffer: 50 mM Tris-HCl, 0.8% NP40, 5% glycerol, 150 mM NaCl, 1.5 mM MgCl2, 25 mM NaF, 1 mM sodium vanadate, 1 mM DTT, pH 7.5. One complete EDTA-free tablet (protease inhibitor cocktail, Roche Diagnostics, 1873580) per 25 mL buffer was added. The material was dounced 10 times using a mechanized POTTER S, transferred to 50 mL falcon tubes, incubated for 30 minutes on ice and spun down for 10 minutes at 20,000 g at 4° C. (10,000 rpm in Sorvall SLA600, precooled). The supernatant was transferred to an ultracentrifuge (UZ)-polycarbonate tube (Beckmann, 355654) and spun for 1 hour at 100.000 g at 4° C. (33.500 rpm in Ti50.2, precooled). The supernatant was transferred again to a fresh 50 mL falcon tube, the protein concentration was determined by a Bradford assay (BioRad) and samples containing 50 mg of protein per aliquot were prepared. The samples were immediately used for experiments or frozen in liquid nitrogen and stored frozen at −80° C.
(§6) Cell lysate (approximately 50 mg protein per plate) was thawed in a water bath at room temperature and then stored on ice. To the thawed cell lysate 1×DP 0.8% NP40 buffer containing protease inhibitors (1 tablet for 25 mL buffer; EDTA-free protease inhibitor cocktail; Roche Diagnostics 1873580) was added in order to reach a final protein concentration of 10 mg/mL total protein. The diluted cell lysate was stored on ice. Mixed Molt4/Ramos lysate was prepared by combining one volume of Molt4 lysate and two volumes of Ramos lysate (ratio 1:2).
(§7) To a 96 well filter plate (Multiscreen HTS, BV Filter Plates, Millipore #MSBVN1250) were
(§8) added per well: 100 μL affinity matrix (3% beads slurry), 3 μL of compound solution, and 50 μL of diluted lysate. Plates were sealed and incubated for 3 hours in a cold room on a plate shaker (Heidolph tiramax 1000) at 750 rpm. […]

The target of assay [2] is T2, JAK2 (Homo sapiens, UniProt O60674).
T2 construct: endogenous in cells; host or cells: mixed Molt4/Ramos cell lysate (1:2)
T2 sequence (O60674 whole entry): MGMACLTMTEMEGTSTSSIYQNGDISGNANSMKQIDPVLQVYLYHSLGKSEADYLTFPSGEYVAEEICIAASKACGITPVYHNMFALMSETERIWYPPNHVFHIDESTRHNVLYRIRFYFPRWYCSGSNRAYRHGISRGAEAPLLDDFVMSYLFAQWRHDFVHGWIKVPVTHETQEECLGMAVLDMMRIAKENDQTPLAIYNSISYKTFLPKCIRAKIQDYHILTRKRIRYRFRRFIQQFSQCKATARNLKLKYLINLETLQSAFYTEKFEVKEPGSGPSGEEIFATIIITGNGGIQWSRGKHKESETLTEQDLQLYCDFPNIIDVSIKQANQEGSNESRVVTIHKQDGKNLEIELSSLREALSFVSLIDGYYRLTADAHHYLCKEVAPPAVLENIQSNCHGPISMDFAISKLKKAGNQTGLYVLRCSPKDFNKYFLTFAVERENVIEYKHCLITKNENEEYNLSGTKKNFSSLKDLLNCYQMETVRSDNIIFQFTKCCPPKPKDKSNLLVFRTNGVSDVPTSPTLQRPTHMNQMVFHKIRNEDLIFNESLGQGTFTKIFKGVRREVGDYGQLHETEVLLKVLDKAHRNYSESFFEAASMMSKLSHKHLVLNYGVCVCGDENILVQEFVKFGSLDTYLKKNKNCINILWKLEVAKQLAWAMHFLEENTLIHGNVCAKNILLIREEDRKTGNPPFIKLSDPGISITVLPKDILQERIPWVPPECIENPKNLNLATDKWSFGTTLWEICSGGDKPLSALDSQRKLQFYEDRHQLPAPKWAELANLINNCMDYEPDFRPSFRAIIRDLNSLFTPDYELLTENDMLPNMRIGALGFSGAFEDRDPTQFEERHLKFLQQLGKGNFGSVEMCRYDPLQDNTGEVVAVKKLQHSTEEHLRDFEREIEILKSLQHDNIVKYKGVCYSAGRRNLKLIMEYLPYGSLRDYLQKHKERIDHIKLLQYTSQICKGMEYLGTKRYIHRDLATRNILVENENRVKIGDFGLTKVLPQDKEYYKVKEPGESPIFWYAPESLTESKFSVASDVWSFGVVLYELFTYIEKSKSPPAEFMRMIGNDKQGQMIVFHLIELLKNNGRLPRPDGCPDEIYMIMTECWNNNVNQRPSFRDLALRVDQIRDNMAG
Nature of the assay: Kinobeads assay, JAK2 (competition binding in mixed Molt4/Ramos cell lysate, dot blot detection). As for the experimental part:
as §1, §2, §3, §4, §5, §6, §7, §8

T1 sequence (P29597 whole entry): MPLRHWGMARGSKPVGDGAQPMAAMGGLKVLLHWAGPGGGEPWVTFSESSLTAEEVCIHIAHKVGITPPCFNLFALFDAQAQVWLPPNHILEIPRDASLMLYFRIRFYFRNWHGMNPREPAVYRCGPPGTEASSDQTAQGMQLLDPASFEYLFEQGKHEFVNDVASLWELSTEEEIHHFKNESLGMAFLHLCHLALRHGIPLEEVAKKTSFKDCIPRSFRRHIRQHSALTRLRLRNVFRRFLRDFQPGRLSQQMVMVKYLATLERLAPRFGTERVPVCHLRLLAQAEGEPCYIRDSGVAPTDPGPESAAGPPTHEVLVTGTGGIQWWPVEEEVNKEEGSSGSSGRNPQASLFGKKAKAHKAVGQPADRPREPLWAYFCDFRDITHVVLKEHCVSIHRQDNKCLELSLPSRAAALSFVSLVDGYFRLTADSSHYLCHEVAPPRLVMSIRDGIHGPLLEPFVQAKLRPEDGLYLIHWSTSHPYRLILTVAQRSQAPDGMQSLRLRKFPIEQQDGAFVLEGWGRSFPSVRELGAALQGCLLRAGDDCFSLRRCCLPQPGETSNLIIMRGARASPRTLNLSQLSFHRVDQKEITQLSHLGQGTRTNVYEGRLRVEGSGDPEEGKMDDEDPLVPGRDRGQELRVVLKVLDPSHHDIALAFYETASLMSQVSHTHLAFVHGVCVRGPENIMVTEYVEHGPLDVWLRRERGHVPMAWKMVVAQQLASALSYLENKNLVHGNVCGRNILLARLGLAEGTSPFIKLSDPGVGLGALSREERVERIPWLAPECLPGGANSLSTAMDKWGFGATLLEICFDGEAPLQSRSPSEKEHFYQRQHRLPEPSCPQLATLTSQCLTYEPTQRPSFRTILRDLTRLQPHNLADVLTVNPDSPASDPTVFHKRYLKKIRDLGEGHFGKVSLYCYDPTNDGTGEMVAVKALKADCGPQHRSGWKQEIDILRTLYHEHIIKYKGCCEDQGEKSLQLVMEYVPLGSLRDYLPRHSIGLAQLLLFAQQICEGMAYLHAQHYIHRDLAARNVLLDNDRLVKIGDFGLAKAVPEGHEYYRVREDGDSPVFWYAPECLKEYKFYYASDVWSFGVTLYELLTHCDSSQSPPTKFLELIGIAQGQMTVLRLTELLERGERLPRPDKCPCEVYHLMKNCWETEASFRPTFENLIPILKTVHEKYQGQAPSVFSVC

As for `COc1ccc(-c2cccc3nc(NC(=O)C4CC4)nn23)c(F)c1` [Example 1, N-(5-(2-fluoro-4-methoxyphenyl)-[1,2,4]triazolo[1,5-a]pyridin-2-yl)cyclopropane carboxamide], the results for the IC50 in assay [1] and in assay [2] were 100 to 1000 nM and over 10000 nM, respectively.
In the case of `O=C(Nc1nc2cccc(-c3ccc(Cl)cc3Cl)n2n1)C1CC1` [Example 2, N-(5-(2,4-dichlorophenyl)-[1,2,4]triazolo[1,5-a]pyridin-2-yl)cyclopropanecarboxamide], the IC50 in assay [1] is 100 to 1000 nM; in assay [2], over 10000 nM.
With `COc1ccc(-c2cccc3nc(NC(=O)C4CC4)nn23)c(C(F)(F)F)c1` [Example 3, N-(5-(4-methoxy-2-(trifluoromethyl)phenyl)-[1,2,4]triazolo[1,5-a]pyridin-2-yl)cyclopropanecarboxamide], the IC50 in assay [1] is 1000 to 10000 nM; in assay [2], over 10000 nM.
For the compound `COc1ccc(-c2cccc3nc(NC(=O)C4CC4)nn23)c(Cl)c1` [Example 4, N-(5-(2-chloro-4-methoxyphenyl)-[1,2,4]triazolo[1,5-a]pyridin-2-yl)cyclopropanecarboxamide], the values for the IC50 in assay [1] and in assay [2] were 100 to 1000 nM and over 10000 nM, respectively.
In the same order, the values of `CS(=O)(=O)c1ccc(-c2cccc3nc(NC(=O)C4CC4)nn23)c(F)c1` [Example 5, N-(5-(2-fluoro-4-(methylsulfonyl)phenyl)-[1,2,4]triazolo[1,5-a]pyridin-2-yl)cyclopropanecarboxamide] are 100 to 1000 nM and over 10000 nM.
In the case of `Nc1ccc(-c2cccc3nc(NC(=O)C4CC4)nn23)c(Cl)c1` [Example 6, N-(5-(4-amino-2-chlorophenyl)-[1,2,4]triazolo[1,5-a]pyridin-2-yl)cyclopropanecarboxamide], the figures for the IC50 in assay [1] and in assay [2] were 100 to 1000 nM and over 10000 nM, respectively.
In the same order, the values of `Nc1ccc(-c2cccc3nc(NC(=O)C4CC4)nn23)c(F)c1` [Example 7, N-(5-(4-amino-2-fluorophenyl)-[1,2,4]triazolo[1,5-a]pyridin-2-yl)cyclopropanecarboxamide] are 100 to 1000 nM and over 10000 nM.
In the same order, the values of `CS(=O)(=O)Nc1ccc(-c2cccc3nc(NC(=O)C4CC4)nn23)c(Cl)c1` [Example 8, N-(5-(2-chloro-4-(methylsulfonamido)phenyl)-[1,2,4]triazolo[1,5-a]pyridin-2-yl)cyclopropanecarboxamide] are 100 to 1000 nM and over 10000 nM.
The like results for `CS(=O)(=O)Nc1ccc(-c2cccc3nc(NC(=O)C4CC4)nn23)c(F)c1` [Example 9, N-(5-(2-fluoro-4-(methylsulfonamido)phenyl)-[1,2,4]triazolo[1,5-a]pyridin-2-yl)cyclopropanecarboxamide] were, in that order, 100 to 1000 nM and over 10000 nM.
In the case of `COc1ccc(-c2cccc3nc(NC(=O)C4CC4)nn23)c(C)c1` [Example 10, N-(5-(4-methoxy-2-methylphenyl)-[1,2,4]triazolo[1,5-a]pyridin-2-yl)cyclopropanecarboxamide], the IC50 was 100 to 1000 nM in assay [1] and over 10000 nM in assay [2].
In the same order, the values of `O=C(Nc1nc2cccc(-c3ccc(NS(=O)(=O)C4CC4)cc3Cl)n2n1)C1CC1` [Example 11] are under 100 nM and over 10000 nM.
On to `Cc1ccc(-c2cccc3nc(NC(=O)C4CC4)nn23)c(C)c1` [Example 12, N-(5-(2,4-dimethylphenyl)-[1,2,4]triazolo[1,5-a]pyridin-2-yl)cyclopropanecarboxamide], for which the IC50 is 100 to 1000 nM in assay [1] and over 10000 nM in assay [2].

One may read the IC50 as the concentration that gives 50% inhibition. A high value points to weaker potency in that assay.
